Columns and labels:
[1] = system: SNI neuropathic pain model in mice; experiment: Spared nerve injury (SNI) neuropathic pain model; format: in vivo, C57 mice
Source text: Peripheral nerve injury models were developed to investigate the mechanisms of neuropathic pain. One such model, the spared nerve injury (SNI) neuropathic pain model in mice, involved ligating and transecting the […] and tibial nerves within the […] nerve, while leaving the sural nerve untouched. […] To evaluate the neuroanalgesic potential of WN2-R in this model, both i.g. and i.m. routes were used to evaluate the neuroanalgesic effect of WN2-R in this model (n = 5). […] In contrast, PF-05089771 reached its peak at 1 h (PWTs = 1.08 g) but then rapidly lost its efficacy, resembling the saline control group after 1 h. Throughout the experiment, the PWTs of the WN2-R group remained consistently higher than that of the PF-05089771 group (Fig. 6F and G). […] Subsequently, the efficacy of both drugs gradually declined, converging with the saline group after 3 h. Throughout the entire dosing period, the PWTs of the WN2-R group were slightly higher than that of the PF-05089771 group (Fig. 6M and N). […] To elucidate the time course of pain hypersensitivity induced by SNI, the behavioral responses (mechanical testing with von Frey fibers) were measured before surgery (baseline value) in C57 mice (5 female). Then, the mice underwent SNI surgery, which involved ligation and axotomy of the common peroneal and tibial nerves, while sparing the sural nerve. Sham-operated mice served as controls, with their nerves remaining intact. To confirm the presence of pain hypersensitivity in the SNI group, behavioral testing was carried out 14 days after SNI in each animal. Post drugs/saline administration, PWTs were measured at 0, 0.5, 1, 1.5, 2, 2.5, and 3 h for the i.g. route, and at 0, 0.5, 1, 2, 3, and 4 h for the i.m. route.

[2] = system: acetic acid writhing pain model in mice; experiment: Acetic acid-induced writhing test; format: in vivo, ICR mice; conditions: 15 min before acetic acid, writhing counted 30 min
Source text: Acute pain was a common type of pain with considerable value for drug development. Here, 2 acute inflammatory pain models were used to verify the acute analgesic effect of WN2-R. One such model, the acetic acid writhing pain model in mice, is a well-established acute visceral pain model. It simulates clinically relevant intestinal discomfort by stimulating the abdominal mucosa and intestine with acetic acid and has been extensively used to screen analgesic or anti-inflammatory drugs. Based on this model, we evaluated the acute analgesic effect of WN2-R using 2 drug delivery methods, i.g. and […] (n = 6). […] Furthermore, the analgesic effect of WN2-R at the same dose was similar to that of the positive control drug PF-05089771, with no significant difference between these two. […] Three male and 3 female ICR mice were used in the acetic acid-induced writhing test. Mice were preadministered with either WN2-R (5 mg/kg i.g., 1 mg/kg i.m.), PF05089771 (5 mg/kg i.g., 1 mg/kg i.m.), or saline 15 min before i.p. injection of 0.2 ml of acetic acid (0.8%, V/V). Each mouse was then placed in an individual open polyvinyl cage (30 cm × 40 cm × 30 cm). The number of writhing responses, characterized by a wave of abdominal muscle contraction followed by hind limb extension, was recorded for 30 min after acetic acid injection. These responses served as an indication of nociceptive intensity. The percentage of inhibition was calculated using the following equation: Inhibition% = (Writhing Numbervehicle – Writhing Numberdrug)/Writhing Numbervehicle × 100% [15, 47].

Cc1ccc(Cn2cc([C@H](CC(=O)NCCN(C)C)c3ccc(F)cc3)c3ccccc32)cc1 [WN2-R]
Duration of significant efficacy ([1]; i.g.): at least 2 h
Paw withdrawal threshold (PWTs) ([1]; i.g., 1 h post drug application, 14 days after SNI): 1.72 g
Time after which efficacy converged with the saline group ([1]; i.m.): 3 h
Time of peak efficacy ([1]; i.m.): 1 h
Paw withdrawal threshold (PWTs) at peak efficacy ([1]; i.m., 1 h post drug application, 14 days after SNI): 1.39 g
Analgesic rate (normalized number of writhing) ([2]; i.g., 5 mg/kg): 30.0%
Analgesic rate (normalized number of writhing) ([2]; i.p. (method: 1 mg/kg i.m.)): 34.1%
